Test results: patent US4016158A, “Cephalosporin derivatives” (Roussel-UCLAF, priority 1971, dated 1977)
Converted amounts (≈) assume the structure as drawn.

Experiments:
[1] = tested on: Staphylococcus aureus 8514; test: bactericidal activity (germs still alive); type: cell-based; set-up: key to germs still alive: +++: all the germs are still alive; +: it remains some colonies; -: it does not remain any germ
Method: (§1) The bactericidal activity of product A was ascertained by determining the number of germs still alive after treatment with increasing doses of antibiotic on a liquid media. From the cultures in tubes having 72 hours (previously described method), were placed on agar in Petri dishes a constant sample of the last tube having grown and of the following tubes where no more growth in transillumination is observed. After 48 hours of culture in the Petri dishes, the number of colonies was ascertained.

[2] = tested on: Staphylococcus aureus 54146; test: bactericidal activity (germs still alive); type: cell-based; set-up: key to germs still alive: +++: all the germs are still alive; +: it remains some colonies; -: it does not remain any germ
Method: as §1

[3] = tested on: Staphylococcus aureus 1098; test: bactericidal activity (germs still alive); type: cell-based; set-up: key to germs still alive: +++: all the germs are still alive; +: it remains some colonies; -: it does not remain any germ
Method: as §1

Shigella sonnei = test: bactericidal activity (germs still alive); type: cell-based; set-up: key to germs still alive: +++: all the germs are still alive; +: it remains some colonies; -: it does not remain any germ
Method: as §1

[4] = tested on: Staphylococcus aureus 9482; test: bactericidal activity (germs still alive); type: cell-based; set-up: key to germs still alive: +++: all the germs are still alive; +: it remains some colonies; -: it does not remain any germ
Method: as §1

solubility = type: physicochemical
[5] = tested on: Staph. aureus oxford U.C. 1061 P(+); test: MIC, diffusion method in gelose medium at pH 7 (Table I); type: cell-based; settings: Staphylococcus aureus, UC1061; Staph. aureus oxford UC 1061, penicillin sensitive, pH 7; read-out: minimum concentration of inhibition
Method: (§2) The antibiotic activity was determined by the diffusion method in a gelose medium at a pH of 7. The following Table expresses the minimum concentration of inhibition in mcg/ml (CMl) for the products against different microbial strains.

Escher. Coli UC 1020 = test: as above; type: cell-based; settings: Escherichia coli, UC1020; Escher. Coli UC 1020, pH 7; read-out: minimum concentration of inhibition
Method: as §2

Staph. U.C. 1128 P(-) = test: as above; type: cell-based; settings: Staph. UC 1128, penicillin resistant, read-out: minimum concentration of inhibition
Method: as §2

With `CC(C)C1=C(C(=O)O)N2C(=O)[C@@H](NC(=O)[C@H](N)c3ccccc3)[C@H]2SC1` [Example 9, L (+) cis 7-[D (-)-α-aminophenylacetamido]-3-isopropyl-3-cepheme-4-carboxylic acid] the germs still alive ([1]; 1 μg/ml) was “+++”, the germs still alive ([1]; 2 μg/ml) was “+++” and the number of colonies ([1]; 3 μg/ml) was “a few”. The germs still alive ([1]; 5 μg/ml) was “-”, the germs still alive ([2]; 1 μg/ml) was “+++” and the germs still alive ([2]; 2 μg/ml) was “+”. For the same molecule, the number of colonies ([2]; 3 μg/ml) was 3 colonies, the germs still alive ([2]; 5 μg/ml) was “-” and the germs still alive ([3]; 1 μg/ml) was “+++”. For the same molecule, the germs still alive ([3]; 2 μg/ml) was “+++”, the number of colonies ([3]; 3 μg/ml) was 1 colonies and the germs still alive ([3]; 5 μg/ml) was “-”. The germs still alive (Shigella sonnei; 20 μg/ml) was “+++”, the germs still alive (Shigella sonnei; 30 μg/ml) was “+” and the number of colonies (Shigella sonnei; 40 μg/ml) was 9 colonies. For the same molecule, the germs still alive (Shigella sonnei; 60 μg/ml) was “-”, the germs still alive ([4]; 1 μg/ml) was “+++” and the number of colonies ([4]; 2 μg/ml) was 1 colonie. The number of colonies ([4]; 3 μg/ml) was 2 colonies, the germs still alive ([4]; 5 μg/ml) was “-” and the solubility in ethanol (solubility; ethanol) was “slightly soluble”. The solubility in ether (solubility; ether) was “insoluble”, the MIC [5] was 0.4 µg/mL (≈ 1.07 µM) and the MIC (Escher. Coli UC 1020) was 100 µg/mL (≈ 266 µM). It also gave an MIC (Staph. U.C. 1128 P(-)) of 2 µg/mL (≈ 5.33 µM).
